Test [1] concerns the target human cathepsin K (UniProt P43236, Y175D/V274L, species not given). Put plainly: Cathepsin K Assay. The class given is biochemical. As to conditions: IP from dose response curve; Z-Leu-Arg-AMC substrate, pH 5.5; read-out: hrbCat K (IP (nM)).
Test [2] deals with T1, human cathepsin F (Homo sapiens, UniProt Q9UBX1).
T1 sequence (Q9UBX1 271-484): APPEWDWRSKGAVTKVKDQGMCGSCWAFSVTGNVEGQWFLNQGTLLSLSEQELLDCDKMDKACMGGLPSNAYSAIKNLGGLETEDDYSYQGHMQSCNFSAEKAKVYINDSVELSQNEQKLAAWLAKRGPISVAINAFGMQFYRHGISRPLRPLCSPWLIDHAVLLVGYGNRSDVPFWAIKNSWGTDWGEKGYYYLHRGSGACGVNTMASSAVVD
Put plainly: Cathepsin F Assay. The class given is biochemical. As to conditions: IP from dose response curve; Z-Phe-Arg-AMC substrate, pH 5.5; read-out: hCat F (IP (nM)). In outline:
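Human cathepsin F (10 nM) preincubated 15 min at room temperature with compounds in 50 mM MES pH 5.5, 2.5 mM EDTA, 2.5 mM DTT, 10% DMSO. Z-Phe-Arg-AMC (8 μM) added; AMC release read by fluorescence (Ex 360/Em 460 nm) over 20 min, inhibition fit to dose-response model.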

With `CC1(C)CCC(C(=O)NC2(C#N)CC2)C(c2nn(-c3ccc(F)cc3)cc2-c2ccc(N3CCS(=O)(=O)CC3)cc2)C1` [Example 117, (1S,2S, or 1R,2R)-N-(1-cyanocyclopropyl)-2-(4-(4-(1,1-dioxidothiomorpholino)phen-yl)-1-(4-fluorophenyl)-1H-pyrazol-3-yl)-4,4-dimethylcyclohexanecarbox-amide], the IC50 in test [1] came out at 13.9 nM; in test [2] it was 1570 nM.
For `N#CC1(NC(=O)[C@@H]2CCCC[C@H]2c2nn(-c3cc(F)cc(F)c3)cc2-c2ccc(N3CCS(=O)(=O)CC3)cc2)CC1` [Example 118, (1R,2R)-N-(1-cyanocyclopropyl)-2-(1-(3,5-difluorophenyl)-4-(4-(1,1-dioxidothiomorpholino)phen-yl)-1H-pyrazol-3-yl)cyclohexanecarboxamide], the IC50 amounted to 0.54 nM in test [1] and 273 nM in test [2].
The corresponding values for `N#CC1(NC(=O)[C@@H]2CCCC[C@H]2c2nn(-c3ccc(OC(F)(F)F)cc3)cc2-c2ccc(N3CCS(=O)(=O)CC3)cc2)CC1` [Example 119, (1R,2R)-N-(1-cyanocyclopropyl)-2-(4-(4-(1,1-dioxidothiomorpholino)phen-yl)-1-(4-(trifluoromethoxy)phenyl)-1H-pyrazol-3-yl)cyclohexanecarboxamide] are 1.8 nM and 562 nM.
With `N#CC1(NC(=O)[C@@H]2CCCC[C@H]2c2nn(-c3ccccc3C(F)(F)F)cc2-c2ccc(N3CCS(=O)(=O)CC3)cc2)CC1` [Example 120, (1R,2R)-N-(1-cyanocyclopropyl)-2-(4-(4-(1,1-dioxidothiomorpholino)phen-yl)-1-(2-(trifluoromethyl)phenyl)-1H-pyrazol-3-yl)cyclohexanecarboxamide], the IC50 amounted to 6.72 nM in test [1] and 3120 nM in test [2].
For the molecule `N#CC1(NC(=O)[C@@H]2CCCC[C@H]2c2nn(-c3ccc(C(F)(F)F)cc3)cc2-c2ccc(N3CCS(=O)(=O)CC3)cc2)CC1` [Example 121, (1R,2R)-N-(1-cyanocyclopropyl)-2-(4-(4-(1,1-dioxidothiomorpholino)phen-yl)-1-(4-(trifluoromethyl)phenyl)-1H-pyrazol-3-yl)cyclohexanecarboxamide], the IC50 in test [1] came to 3.08 nM; in test [2] it was 649 nM.
For the molecule `N#CC1(NC(=O)[C@@H]2CCCC[C@H]2c2nn(-c3cccc(OC(F)(F)F)c3)cc2-c2ccc(N3CCS(=O)(=O)CC3)cc2)CC1` [Example 122, (1R,2R)-N-(1-cyanocyclopropyl)-2-(4-(4-(1,1-dioxidothiomorpholino)phen-yl)-1-(3-(trifluoromethoxy)phenyl)-1H-pyrazol-3-yl)cyclohexanecarboxamide], the IC50 in test [1] turned out to be 0.78 nM; in test [2], 466 nM.
As to `N#CC1(NC(=O)[C@@H]2CCCC[C@H]2c2nn(-c3ccc(-n4cccn4)cc3)cc2-c2ccc(N3CCS(=O)(=O)CC3)cc2)CC1` [Example 123, (1R,2R)-2-(1-(4-(1H-pyrazol-1-yl)phenyl)-4-(4-(1,1-dioxidothiomorpholino)phen-yl)-1H-pyrazol-3-yl)-N-(1-cyanocyclopropyl)cyclohex-anecarboxamide], the IC50 in test [1] amounted to 0.96 nM; in test [2], 593 nM.
Take `N#CC1(NC(=O)[C@@H]2CCCC[C@H]2c2nn(-c3cccc(C(F)(F)F)c3)cc2-c2ccc(N3CCS(=O)(=O)CC3)cc2)CC1` [Example 124, (1R,2R)-N-(1-cyanocyclopropyl)-2-(4-(4-(1,1-dioxidothiomorpholino)phen-yl)-1-(3-(trifluoromethyl)phenyl)-1H-pyrazol-3-yl)cyclohexanecarboxamide]: the IC50 came to 1.58 nM in test [1] and 588 nM in test [2].
Turning to `N#CC1(NC(=O)[C@@H]2CCCC[C@H]2c2nn(-c3ccccc3OC(F)(F)F)cc2-c2ccc(N3CCS(=O)(=O)CC3)cc2)CC1` [Example 125, (1R,2R)-N-(1-cyanocyclopropyl)-2-(4-(4-(1,1-dioxidothiomorpholino)phen-yl)-1-(2-(trifluoromethoxy)phenyl)-1H-pyrazol-3-yl)cyclohexanecarboxamide], the IC50 is 2.18 nM in test [1] and 836 nM in test [2].
The corresponding values for `N#CC1(NC(=O)[C@@H]2CCCC[C@H]2c2nn(-c3cc(F)c(F)c(F)c3)cc2-c2ccc(N3CCS(=O)(=O)CC3)cc2)CC1` [Example 128, (1R,2R)-N-(1-cyanocyclopropyl)-2-(4-(4-(1,1-dioxidothiomorpholino)phen-yl)-1-(3,4,5-trifluorophenyl)-1H-pyrazol-3-yl)cyclohexanecarboxamide] are 0.79 nM and 319 nM.
For `N#CC1(NC(=O)[C@@H]2CCCC[C@H]2c2nn(-c3ccc(F)cc3)cc2-c2ccc(N3CCS(=N)(=O)CC3)cc2)CC1` [Example 129, (1R,2R)-N-(1-cyanocyclopropyl)-2-(1-(4-fluorophenyl)-4-(4-(1-imino-1-oxidothiomorpholino)phenyl)-1H-pyrazol-3-yl)cyclohexanecarboxamide], the IC50 in test [1] was 1.84 nM; in test [2] it was 932 nM.
The like results for `CN=S1(=O)CCN(c2ccc(-c3cn(-c4ccc(F)cc4)nc3[C@@H]3CCCC[C@H]3C(=O)NC3(C#N)CC3)cc2)CC1` [Example 130, (1R,2R)-N-(1-cyanocyclopropyl)-2-(1-(4-fluorophenyl)-4-(4-(1-(methylimino)-1-oxidothiomorpholino)phenyl)-1H-pyrazol-3-yl)cyclohexanecarboxamide] were, in that order, 1.92 nM and 854 nM.
On to `N#CC1(NC(=O)[C@@H]2CCCC[C@H]2c2nn(-c3ccc(F)cc3F)cc2-c2ccc(N3CCS(=O)(=O)CC3)cc2)CC1` [Example 131, (1R,2R)-N-(1-cyanocyclopropyl)-2-(1-(2,4-difluorophenyl)-4-(4-(1,1-dioxidothiomorpholino)phen-yl)-1H-pyrazol-3-yl)cyclohexanecarboxamide], for which the IC50 in test [1] turned out to be 2.49 nM; in test [2], 1540 nM.
The corresponding values for `N#Cc1ccc(-n2cc(-c3ccc(N4CCS(=O)(=O)CC4)cc3)c([C@@H]3CCCC[C@H]3C(=O)NC3(C#N)CC3)n2)c(F)c1` [Example 132, (1R,2R)-2-(1-(4-cyano-2-fluorophenyl)-4-(4-(1,1-dioxidothiomorpholino)phen-yl)-1H-pyrazol-3-yl)-N-(1-cyanocyclopropyl)cyclohex-anecarboxamide] are 2.51 nM and 733 nM.
In the case of `N#CC1(NC(=O)[C@@H]2CCCC[C@H]2c2nn(-c3c(F)cccc3F)cc2-c2ccc(N3CCS(=O)(=O)CC3)cc2)CC1` [Example 133, (1R,2R)-N-(1-cyanocyclopropyl)-2-(1-(2,6-difluorophenyl)-4-(4-(1,1-dioxidothiomorpholino)phen-yl)-1H-pyrazol-3-yl)cyclohexanecarboxamide], the IC50 in test [1] was determined as 3.56 nM; in test [2], 2340 nM.
Consider `CC(=O)N1CC(c2ccc(-c3cn(-c4ccc(F)cc4)nc3[C@@H]3CCCC[C@H]3C(=O)NC3(C#N)CC3)cc2)C1` [Example 134, (1R,2R)-2-(4-(4-(1-acetylazetidin-3-yl)phenyl)-1-(4-fluorophenyl)-1H-pyrazol-3-yl)-N-(1-cyanocyclopropyl)cyclohex-anecarboxamide], for which the IC50 in test [1] was 1.57 nM; in test [2] it was 210 nM.

The values above are taken from patent US9656990B2, “Cathepsin cysteine protease inhibitors” (Merck Sharp & Dohme Corp., priority 2014, dated 2017).
